According to patent US12208088B2 (Genentech, Inc., priority 2018, dated 2025):

Target: HPK1 (Homo sapiens (Human), UniProt Q92918)
Experiment: HPK1 Lantha binding assay ("Lanth")
Conditions: binding assays; Morrison Ki fit
Procedure, shortened: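 Ki values are from Morrison-equation fitting of 665/615 nm TR-FRET signals, taking enzyme level, tracer level and tracer Kd into account. The assay mix held HPK1 (2 nM), Eu-anti-GST antibody (2 nM) and Tracer222 (15 nM). Incubations were two 1 h steps at 23 °C, on 5-fold serial compound dilutions.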

HPK1, sequence (Q92918 1-346 limits assumed): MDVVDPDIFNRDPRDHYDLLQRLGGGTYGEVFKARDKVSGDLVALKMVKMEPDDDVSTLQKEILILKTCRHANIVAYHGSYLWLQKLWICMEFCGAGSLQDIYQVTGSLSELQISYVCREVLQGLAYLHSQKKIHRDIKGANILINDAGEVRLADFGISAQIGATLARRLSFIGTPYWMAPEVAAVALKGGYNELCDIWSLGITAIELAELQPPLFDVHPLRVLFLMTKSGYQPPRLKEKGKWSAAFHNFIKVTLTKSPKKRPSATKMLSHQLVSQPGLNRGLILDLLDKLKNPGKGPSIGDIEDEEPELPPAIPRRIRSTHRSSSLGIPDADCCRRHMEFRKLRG

`O=C(NCCO)c1ccc(-c2cnc3c(c2Cl)C2(CC=CC2)CN3)cc1` [Compound 214, 4-(4′-Chloro-1′,2′-dihydrospiro[cyclopentane-1,3′-pyrrolo[2,3-6]pyridin]-3-en-5′-yl)-N-(2-hydroxyethyl)benzamide] gave a Ki of 340 nM.
For `Clc1c(-c2ccc(-n3cccn3)cc2)cnc2c1C1(CC=CC1)CN2` [Compound 215, 5′-(4-(1H-Pyrazol-1-yl)phenyl)-4′-chloro-1′,2′-dihydrospiro[cyclopentane-1,3′-pyrrolo[2,3-b]pyridin]-3-ene], the Ki was 676 nM.
In the case of `OCc1ccc(-c2cnc3c(c2Cl)C2(CC=CC2)CN3)c(F)c1` [Compound 216, (4-(4′-Chloro-1′,2′-dihydrospiro[cyclopentane-1,3′-pyrrolo[2,3-b]pyridin]-3-en-5′-yl)-3-fluorophenyl)methanol], the Ki is reported as 330 nM.
Work on `CN(C)S(=O)(=O)Nc1cccc(-c2cnc3c(c2Cl)C2(CC=CC2)CN3)c1` [Compound 218, N-(3-(4′-Chloro-1′,2′-dihydrospiro[cyclopentane-1,3′-pyrrolo[2,3-b]pyridin]-3-en-5′-yl)phenyl)-N′,N′-dimethylsulfamide] yielded a Ki of 230 nM.
Compound `OCc1cccc(-c2cnc3c(c2Cl)C2(CC=CC2)CN3)c1F` [Compound 219, (3-(4′-Chloro-1′,2′-dihydrospiro[cyclopentane-1,3′-pyrrolo[2,3-b]pyridin]-3-en-5′-yl)-2-fluorophenyl)methanol] has a Ki of 478 nM.
`Clc1c(-c2ccc(COC3CCOCC3)cc2)cnc2c1C1(CC=CC1)CN2` [Compound 220, 4′-Chloro-5′-(4-(((tetrahydro-2H-pyran-4-yl)oxy)methyl)phenyl)-1′,2′-dihydrospiro[cyclopentane-1,3′-pyrrolo[2,3-b]pyridin]-3-ene] showed a Ki of 308 nM.
`N#CCCNC(=O)c1ccc(-c2cnc3c(c2Cl)C2(CC=CC2)CN3)cc1` [Compound 221, 4-(4′-Chloro-1′,2′-dihydrospiro[cyclopentane-1,3′-pyrrolo[2,3-b]pyridin]-3-en-5′-yl)-N-(2-cyanoethyl)benzamide] was tested, and the Ki was 303 nM.
`CC(=O)Nc1cccc(-c2cnc3c(c2Cl)C2(CC=CC2)CN3)c1` [Compound 222, N-(3-(4′-Chloro-1′,2′-dihydrospiro[cyclopentane-1,3′-pyrrolo[2,3-b]pyridin]-3-en-5′-yl)phenyl)acetamide] was tested, and the Ki was 275 nM.
`COCCc1ccc(-c2cnc3c(c2Cl)C2(CC=CC2)CN3)cc1` [Compound 223, 4′-Chloro-5′-(4-(2-methoxyethyl)phenyl)-1′,2′-dihydrospiro[cyclopentane-1,3′-pyrrolo[2,3-b]pyridin]-3-ene] showed a Ki of 436 nM.
In the case of `Nc1ccc(-c2cnc3c(c2Cl)C2(CC=CC2)CN3)cc1` [Compound 224, 4-(4′-Chloro-1′,2′-dihydrospiro[cyclopentane-1,3′-pyrrolo[2,3-b]pyridin]-3-en-5′-yl)aniline], the Ki is reported as 126 nM.
With `Nc1ccc(-c2cnc3c(c2Cl)C2(CC=CC2)CN3)c(F)c1` [Compound 225, 4-(4′-Chloro-1′,2′-dihydrospiro[cyclopentane-1,3′-pyrrolo[2,3-b]pyridin]-3-en-5′-yl)-3-fluoroaniline] the Ki was 363 nM.
`CN(C)C(=O)c1cccc(-c2cnc3c(c2Cl)C2(CC=CC2)CN3)c1` [Compound 226, 3-(4′-Chloro-1′,2′-dihydrospiro[cyclopentane-1,3′-pyrrolo[2,3-b]pyridin]-3-en-5′-yl)-N,N-dimethylbenzamide] showed a Ki of 14 nM.
`CN(C)C(=O)c1cccc(-c2cnc3c(c2Cl)C2(CC=CC2)CN3)c1F` [Compound 227, 3-(4′-Chloro-1′,2′-dihydrospiro[cyclopentane-1,3′-pyrrolo[2,3-b]pyridin]-3-en-5′-yl)-2-fluoro-N,N-dimethylbenzamide] gave a Ki of 11.2 nM.
`O=C(c1ccc(-c2cnc3c(c2Cl)C2(CC=CC2)CN3)cc1Cl)N1CCC(O)CC1` [Compound 230, (2-Chloro-4-(4′-chloro-1′,2′-dihydrospiro[cyclopentane-1,3′-pyrrolo[2,3-b]pyridin]-3-en-5′-yl)phenyl)(4-hydroxypiperidin-1-yl)methanone] gave a Ki of 173 nM.
With `O=C(c1ccc(-c2cnc3c(c2Cl)C2(CC=CC2)CN3)cc1)N1CCOCC1` [Compound 231, (4-(4′-Chloro-1′,2′-dihydrospiro[cyclopentane-1,3′-pyrrolo[2,3-b]pyridin]-3-en-5′-yl)phenyl)(morpholino)methanone] the Ki was 447 nM.
`O=C(c1cccc(-c2cnc3c(c2)C2(CC2)CN3)c1F)N1CCCCC1` [Compound 232, (3-(1′,2′-dihydrospiro[cyclopropane-1,3′-pyrrolo[2,3-b]pyridin]-5′-y1)-2-fluorophenyl)(piperidin-1-yl)methanone] gave a Ki of 33.7 nM.
In the case of `Cc1c(-c2ccc(N)c(C(=O)N(C)C)c2F)cnc2c1C1(CCCCC1)CN2` [Compound 233, 6-Amino-2-fluoro-N,N-dimethyl-3-(4′-methyl-1′,2′-dihydrospiro[cyclohexane-1,3′-pyrrolo[2,3-b]pyridin]-5′-yl)benzamide], the Ki is reported as 26.1 nM.
`CC(C)[C@@H]1C[C@]12CNc1ncc(-c3ccc(N)c(C(=O)N(C)C)c3F)cc12` [Compound 234b, 6-Amino-2-fluoro-3-((1S,2S)-2-isopropyl-1′,2′-dihydrospiro[cyclopropane-1,3′-pyrrolo[2,3-b]pyridin]-5′-yl)-N,N-dimethylbenzamide] was tested, and the Ki was 38 nM.
In the case of `CN(C)C(=O)c1c(N)ccc(-c2cnc3c(c2Cl)[C@]2(CC[C@@H](C(N)=O)CC2)CN3)c1F` [Compound 235a, (1r,4r)-5′-(4-Amino-3-(dimethylcarbamoyl)-2-fluorophenyl)-4′-chloro-1′,2′-dihydrospiro[cyclohexane-1,3′-pyrrolo[2,3-b]pyridine]-4-carboxamide], the Ki is reported as 46.7 nM.
Compound `CN(C)C(=O)c1c(N)ccc(-c2cnc3c(c2Cl)[C@]2(CC[C@H](C(N)=O)CC2)CN3)c1F` [Compound 235b, (1s,4s)-5′-(4-Amino-3-(dimethylcarbamoyl)-2-fluorophenyl)-4′-chloro-1′,2′-dihydrospiro[cyclohexane-1,3′-pyrrolo[2,3-b]pyridine]-4-carboxamide] has a Ki of 11.9 nM.
In the case of `NC(=O)C1(c2cccc(-c3cnc4c(c3Cl)C3(CC=CC3)CN4)c2)CC1` [Compound 236, 1-(3-(4′-Chloro-1′,2′-dihydrospiro[cyclopentane-1,3′-pyrrolo[2,3-b]pyridin]-3-en-5′-yl)phenyl)cyclopropane-1-carboxamide], the Ki is reported as 33.2 nM.
`Clc1c(-c2ccc(Oc3ncccn3)cc2)cnc2c1C1(CC=CC1)CN2` [Compound 237, 4′-Chloro-5′-(4-(pyrimidin-2-yloxy)phenyl)-1′,2′-dihydrospiro[cyclopentane-1,3′-pyrrolo[2,3-b]pyridin]-3-ene] showed a Ki of 283 nM.
Compound `Cc1cc(C)n(-c2cccc(-c3cnc4c(c3Cl)C3(CC=CC3)CN4)c2)n1` [Compound 238, 4′-Chloro-5′-(3-(3,5-dimethyl-1H-pyrazol-1-yl)phenyl)-1′,2′-dihydrospiro[cyclopentane-1,3′-pyrrolo[2,3-b]pyridin]-3-ene] has a Ki of 22.9 nM.
`CN(C)C(=O)c1c(N)ccc(-c2cnc3c(c2Cl)[C@]2(CC[C@@H](C#N)CC2)CN3)c1F` [Compound 241a, 6-Amino-3-((1r,4r)-4′-chloro-4-cyano-1′,2′-dihydrospiro[cyclohexane-1,3′-pyrrolo[2,3-b]pyridin]-5′-yl)-2-fluoro-N,N-dimethylbenzamide] was tested, and the Ki was 44.8 nM.
`CN(C)C(=O)c1c(N)ccc(-c2cnc3c(c2Cl)[C@]2(CC[C@H](C#N)CC2)CN3)c1F` [Compound 241b, 6-Amino-3-((1s,4s)-4′-chloro-4-cyano-1′,2′-dihydrospiro[cyclohexane-1,3′-pyrrolo[2,3-b]pyridin]-5′-yl)-2-fluoro-N,N-dimethylbenzamide] gave a Ki of 12.5 nM.
Compound `Cc1c(CC#N)ccnc1-c1cccc(-c2cnc3c(c2)C2(CC2)CN3)c1` [Compound 242, 2-(2-(3-(1′,2′-Dihydrospiro[cyclopropane-1,3′-pyrrolo[2,3-b]pyridin]-5′-yl)phenyl)-3-methylpyridin-4-yl)acetonitrile] has a Ki of 11.7 nM.
For `N#CC1CCCCN1C(=O)c1cccc(-c2cnc3c(c2)C2(CC2)CN3)c1F` (centres unmarked) [Compound 244, 1-(3-(1′,2′-Dihydrospiro[cyclopropane-1,3′-pyrrolo[2,3-b]pyridin]-5′-yl)-2-fluorobenzoyl)piperidine-2-carbonitrile], the Ki was 8.25 nM.
`Cn1cc(C2CCCCN2C(=O)c2cccc(-c3cnc4c(c3)[C@]3(CC[C@H](O)CC3)CN4)c2F)cn1` (stereo partly drawn) [Compound 245a, (2-Fluoro-3-((1s,4s)-4-hydroxy-1′,2′-dihydrospiro[cyclohexane-1,3′-pyrrolo[2,3-b]pyridin]-5′-yl)phenyl)((R)-2-(1-methyl-1H-pyrazol-4-yl)piperidin-1-yl)methanone] was tested, and the Ki was 42 nM.
`CC(C)(C)c1nnc(-c2cccc(-c3cnc4c(c3Cl)C3(CC=CC3)CN4)c2)o1` [Compound 247, 2-(tert-Butyl)-5-(3-(4′-chloro-1′,2′-dihydrospiro[cyclopentane-1,3′-pyrrolo[2,3-b]pyridin]-3-en-5′-yl)phenyl)-1,3,4-oxadiazole] was tested, and the Ki was 253 nM.
`CN(C)C(=O)c1c(N)ccc(-c2cnc3c(c2Cl)[C@]2(CC[C@H](CO)CC2)CN3)c1F` [Compound 248a, 6-Amino-3-((1s,4s)-4′-chloro-4-(hydroxymethyl)-1′,2′-dihydrospiro[cyclohexane-1,3′-pyrrolo[2,3-b]pyridin]-5′-yl)-2-fluoro-N,N-dimethylbenzamide] was tested, and the Ki was 6.01 nM.
For `CN(C)C(=O)c1c(N)ccc(-c2cnc3c(c2Cl)[C@]2(CC[C@@H](CO)CC2)CN3)c1F` [Compound 248b, 6-Amino-3-((1r,4r)-4′-chloro-4-(hydroxymethyl)-1′,2′-dihydrospiro[cyclohexane-1,3′-pyrrolo[2,3-b]pyridin]-5′-yl)-2-fluoro-N,N-dimethylbenzamide], the Ki was 4.89 nM.
Work on `Cc1c(CC#N)ccnc1-c1cccc(-c2cnc3c(c2Cl)C2(CC=CC2)CN3)c1` [Compound 249, 2-(2-(3-(4′-Chloro-1′,2′-dihydrospiro[cyclopentane-1,3′-pyrrolo[2,3-b]pyridin]-3-en-5′-yl)phenyl)-3-methylpyridin-4-yl)acetonitrile] yielded a Ki of 4.3 nM.
